Reference: ChEMBL document CHEMBL4725353, “Discovery of Pyrido[2,3-b]indole Derivatives with Gram-Negative Activity Targeting Both DNA Gyrase and Topoisomerase IV” (J Med Chem, 2020)
Converted amounts (≈) assume the structure as drawn.

Key:
physchem [1] = test: physchem
Description: Ionization constant (acid), pKa of the compound by photometric titration assay

Escherichia coli [2] = test: microbe, parasite or virus in culture; conditions: ATCC 29213
Description: Antibacterial activity against Escherichia coli ATCC 29213 assessed as reduction in microbial growth preincubated for 20 to 24 hrs followed by subculture in absence of compound and measured on day 4 CLSI based broth microdilution susceptibility method

Escherichia coli [3] = test: microbe, parasite or virus in culture; conditions: ATCC 25922
Description: Antibacterial activity against Escherichia coli ATCC 25922 assessed as reduction in microbial growth preincubated for 20 to 24 hrs followed by subculture in absence of compound and measured on day 4 CLSI based broth microdilution susceptibility method

in vitro = conditions: mouse, liver microsomes
Description: Intrinsic clearance in mouse liver microsomes preincubated for 10 mins followed by NADPH regenerating system addition and measured up to 30 mins by LC/MS-MS analysis

physchem [4] = conditions: PBS, pH 6.5
Description: Solubility of compound in PBS at pH 6.5 incubated for over night by HPLC-UV based lyophilization solubility assay

[5] = Distribution coefficient between octanol and buffer, log D of the compound in pH 7.4 buffer by CAMDIS assay; assay type: physicochemical

Row | Compound | pKa (physchem [1]) | MIC (Escherichia coli [2]) [µg/mL] | MIC (Escherichia coli [3]) [µg/mL] | CLint scaled at 0.5 h (in vitro) [mL/min/kg] | solubility (physchem [4]) [µg/mL] | logD [5]
1 | CCNc1cc(F)cc2c1[nH]c1ncc(-c3cnc(NC4CNC4)nc3)c(-n3ccc(C(F)(F)F)n3)c12 | 9.35 | < 0.25 | 4 (≈ 7.82 µM) | – | – | –
2 | CCNc1cc(F)cc2c1[nH]c1ncc(-c3cncc(C(=O)NOC)c3)c(-n3ccc(C(F)(F)F)n3)c12 | – | < 0.125 | 0.5 (≈ 0.974 µM) | – | – | 3.41
3 | CCNc1cc(F)cc2c1[nH]c1ncc(-c3cnc([C@@H](C)O)nc3)c(-n3ccc(C(F)(F)F)n3)c12 | – | < 0.25 | 0.5 (≈ 1.03 µM) | 57.2 | < 1 | –
4 | CCNc1cc(F)cc2c1[nH]c1ncc(-c3cncc(C(=O)NC)c3)c(-n3ccc(C(F)(F)F)n3)c12 | – | < 0.25 | 0.5 (≈ 1.01 µM) | – | – | 3.42
5 | CCNc1cc(F)cc2c1[nH]c1ncc(-c3cncc(C(=O)NO)c3)c(-n3ccc(C(F)(F)F)n3)c12 | – | < 0.125 | 2 (≈ 4 µM) | – | – | 3.05
6 | CCNc1cc(F)cc2c1[nH]c1ncc(-c3cnc(N4CCNCC4)nc3)c(-n3ccc(C(F)(F)F)n3)c12 | 8.6 | 0.31 (≈ 0.59 µM) | 1 (≈ 1.9 µM) | 61.4 | < 1 | –
7 | CNc1cc(F)cc2c1[nH]c1ncc(-c3cnc(C4(C(=O)O)CC4)nc3)c(-n3ccc(C(F)(F)F)n3)c12 | – | < 0.016 | 0.75 (≈ 1.47 µM) | 22.9 | 148 (≈ 289 µM) | –
8 | CCNc1cc(F)cc2c1[nH]c1ncc(-c3cncc(Cc4ncc[nH]4)c3)c(-n3ccc(C(F)(F)F)n3)c12 | – | < 0.057 | 2.83 (≈ 5.44 µM) | – | – | 3.62
9 | CCNc1cc(F)cc2c1[nH]c1ncc(-c3cnc(OC)nc3)c(-n3ccc(C(F)(F)F)n3)c12 | – | < 0.016 | 0.5 (≈ 1.06 µM) | 20.2 | < 1 | –

The next lines start with the values.

Row | pKa (physchem [1]) | MIC (Escherichia coli [2]) [µg/mL] | MIC (Escherichia coli [3]) [µg/mL] | CLint scaled at 0.5 h (in vitro) [mL/min/kg] | solubility (physchem [4]) [µg/mL] | logD [5] | Compound
10 | – | < 0.25 | < 0.25 | 55.5 | < 0.2 | – | CCNc1cc(F)cc2c1[nH]c1ncc(-c3cnc(C(N)=O)nc3)c(-n3ccc(C(F)(F)F)n3)c12
11 | – | < 0.016 | 2 (≈ 4.12 µM) | 37 | < 0.3 | – | CCNc1cc(F)cc2c1[nH]c1ncc(-c3cnc(OCC)nc3)c(-n3ccc(C(F)(F)F)n3)c12
12 | – | < 0.056 | 0.71 (≈ 1.36 µM) | – | – | 3.66 | CCNc1cc(F)cc2c1[nH]c1ncc(-c3cncc(Cc4ncco4)c3)c(-n3ccc(C(F)(F)F)n3)c12
13 | 4.39 | 0.63 (≈ 1.38 µM) | 1 (≈ 2.19 µM) | 25.9 | 7.6 (≈ 16.7 µM) | – | CCNc1cc(F)cc2c1[nH]c1ncc(-c3cnc(N)nc3)c(-n3ccc(C(F)(F)F)n3)c12
14 | – | < 0.25 | 1 (≈ 2 µM) | 58.7 | < 1 | – | CCNc1cc(F)cc2c1[nH]c1ncc(-c3cnc(C(C)(C)O)nc3)c(-n3ccc(C(F)(F)F)n3)c12
15 | 9.06 | 0.63 (≈ 1.17 µM) | 1 (≈ 1.85 µM) | – | – | – | CCNc1cc(F)cc2c1[nH]c1ncc(-c3cnc(OC4CCNCC4)nc3)c(-n3ccc(C(F)(F)F)n3)c12
16 | – | < 0.25 | 0.5 (≈ 1.03 µM) | 52.8 | < 0.2 | – | CCNc1cc(F)cc2c1[nH]c1ncc(-c3cnc([C@H](C)O)nc3)c(-n3ccc(C(F)(F)F)n3)c12
17 | – | 0.5 (≈ 1.01 µM) | 8 (≈ 16.1 µM) | – | – | 2.28 | CCNc1cc(F)cc2c1[nH]c1ncc(-c3cncc(C(=N)NC)c3)c(-n3ccc(C(F)(F)F)n3)c12
18 | – | < 0.25 | 1 (≈ 1.9 µM) | – | – | 3.64 | CCNc1cc(F)cc2c1[nH]c1ncc(-c3cncc(N4CCOCC4)c3)c(-n3ccc(C(F)(F)F)n3)c12
